Laboratory results taken from patent US9220760B2, “Method of modulating the proliferation of medullary thyroid carcinoma cells” (The Administrators of the Tulane Educational Fund, priority 2001, dated 2015).
Like-named read-outs stand apart in the source and are kept apart here. Where a SMILES comes first, the peptide text is derived from it. [ ]: non-standard residue; d: D form. Tic = O=C(O)[C@@H]1Cc2ccccc2CN1; Abu = CC[C@H](N)C(=O)O

Experiments:
[1] = test system: human MTC cell line TT; assay: TT cell viability by Trypan Blue staining; type: cell-based
Procedure: (§1) After incubation, the cells were washed three times with ice-cold PBS and twice with 10% ice-cold trichloroacetic acid (TCA). TCA-precipitated material was solubilized in 500 μL 0.2 mol/L sodium hydroxide and 0.1% SDS. Cell-associated radioactivity was then counted in a scintillation spectrometer. Results (counts per min per well) were obtained by determining the mean value of at least six experiments in quadruplicate. The viability of TT cells in control and treated cultures was evaluated by Trypan blue staining both after 24 and 48 hours, and the number of viable cells was always 85-95%.

[2] = molecular target: T1, human SSTR2 (Homo sapiens, UniProt P30874); assay: SSTR2 mediated intracellular calcium mobilization in CHO-K1 cells; type: cell-based; settings: 10^-7-10^-6 M, FIG. 1
T1 construct: expressed in transfected cells
T1 sequence (P30874 whole entry): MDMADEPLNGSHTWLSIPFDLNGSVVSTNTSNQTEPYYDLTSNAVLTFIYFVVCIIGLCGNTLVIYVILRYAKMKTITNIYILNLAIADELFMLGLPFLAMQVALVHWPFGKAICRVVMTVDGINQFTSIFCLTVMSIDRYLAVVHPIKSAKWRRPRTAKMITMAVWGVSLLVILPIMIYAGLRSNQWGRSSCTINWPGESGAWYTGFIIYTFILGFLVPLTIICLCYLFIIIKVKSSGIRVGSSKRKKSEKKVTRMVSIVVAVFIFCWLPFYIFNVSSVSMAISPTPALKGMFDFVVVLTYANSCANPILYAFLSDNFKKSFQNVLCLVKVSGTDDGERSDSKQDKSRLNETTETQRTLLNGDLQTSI
Procedure: Biological activity of SSTR selective agonists and antagonists was evaluated by the calcium mobilization assay in CHO-K1 cells expressing the human SSTR2 or SSTR5. The cells were harvested by incubating in a 0.3% EDTA/phosphate buffered saline solution (25° C.), and washed twice by centrifugation. The washed cells were resuspended in Hank's—buffered saline solution (HBSS) for loading of the fluorescent Ca^2+ indicator Fura-2AM. Cell suspensions (approximately 10^6 cells/ml) were incubated with 2 mM Fura-2AM for 30 min at 25° C. Unloaded Fura-2AM was removed by centrifugation twice in HBBS, and the final suspensions were transferred to a spectrofluorometer (Hitachi F-2000) equipped with a magnetic stirring mechanism and a temperature-regulated cuvette holder. After equilibration to 37° C., the SS analogues were added for measurement of intracellular Ca^2+ mobilization.

[3] = molecular target: human SSTR1 (Homo sapiens, UniProt P30872); assay: Radioligand membrane receptor binding assay, SSTR1; settings: CHO-K1 membranes, [125I-Tyr11]SS-14; read-out: Human somatostatin receptor subtype specificity, Ki, receptor subtype 1
Sequence of human SSTR1 (P30872 whole entry): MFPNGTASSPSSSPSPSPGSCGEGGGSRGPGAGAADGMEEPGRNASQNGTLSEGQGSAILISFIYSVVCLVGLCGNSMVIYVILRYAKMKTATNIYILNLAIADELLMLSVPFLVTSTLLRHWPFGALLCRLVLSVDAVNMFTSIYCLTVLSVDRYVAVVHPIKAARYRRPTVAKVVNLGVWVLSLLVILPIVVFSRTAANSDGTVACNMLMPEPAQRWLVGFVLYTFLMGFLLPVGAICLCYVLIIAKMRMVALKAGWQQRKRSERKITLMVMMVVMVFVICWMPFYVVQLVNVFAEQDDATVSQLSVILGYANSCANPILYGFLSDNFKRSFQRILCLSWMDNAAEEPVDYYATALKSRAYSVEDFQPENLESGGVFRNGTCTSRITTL
Procedure: Specificity and selectivity of the analogues were determined by Radioligand Binding Assay on CHO-K1 cells stably transfected with each of the SSTR subtypes, as follows.
Membranes for in vitro receptor binding assays were obtained by homogenizing the CHO-K1 cells expressing the SSTR's subtypes in ice-cold 50 mM Tris-HCl and centrifuging twice at 39000 g (10 min), with an intermediate resuspension in fresh buffer. The final pellets were resuspended in 10 mM Tris-HCl for assay. […] The final assay volume was 0.3 ml. […] The incubations were terminated by rapid filtration through GF/C filters (pre-soaked in 0.3% polyethylenimine) using a Brandel filtration manifold. Each tube and filter were then washed three times with 5 ml aliquots of ice-cold buffer.
Subtype affinity was determined by radioligand membrane receptor binding assays in Chinese hamster ovary cells expressing human SSR2 gene or SSR5 cDNA

[4] = test system: human MTC cell line TT; assay: [3H]thymidine incorporation (DNA synthesis) in TT cells; type: cell-based; settings: for Change of [3H]thy incorporation: p<0.05
Procedure: Cells were incubated in 24-well plates for 48 hours in a culture medium supplemented with SS analogues at various concentrations (10^−9, 10^−8, 10^−7, and 10^−6 M). Control wells were treated with vehicle solution and [^3H]thy incorporation was measured as radioactivity in TCA-precipitated material. Data from six individual experiments evaluated independently in quadruplicate are expressed as the mean±SEM percent [^3H]thy incorporation inhibition versus untreated control cells *P<0.05 and **P<0.01 vs. control.
Control wells were treated with vehicle solution. [^3H]thy incorporation was measured as radioactivity in TCA-precipitated material. Data from six individual experiments were evaluated independently with four replicates expressed as the mean±SEM percent [^3H]thy incorporation inhibition versus untreated control cells *P<0.05 and **P<0.01 vs. control.
The effects of SSTR selective agonists and antagonists on TT cell DNA synthesis were assessed by determining the rate of [^3H]thymidine ([^3H]thy) incorporation, as previously described (Davis L, et al., 1994 In: Basic methods in Molecular Biology, 2nd edition, Appleton & Lange, Norwalk, Conn., USA: 611-646, degli Uberti E C, et al., 1991 J Clin Endocrinol Metab 72: 1364-1371). TT cells were plated in 24-multiwell plates (10^5 cells/well) and incubated for 48 hours in a medium supplemented with 10% FBS in the presence of [^3H]thy (1.5 μCi/mL; 87 Ci/mmol) with or without each SS analogue at concentrations ranging from 10^−6 to 10^−9 M. Treatments were renewed by adding fresh analogues to the wells after the first 24 h of incubation, without removing the medium.
as §1

[5] = test system: human MTC cell line TT; assay: TT cell proliferation ([…] 96 MTS assay, viable cell number); type: cell-based
Procedure: Cells were incubated in 96-well plates for 48 hours in a culture medium supplemented with SS analogues at various concentrations (10^−9, 10^−8, 10^−7, and 10^−6 M). Control wells were treated with vehicle solution. TT cell proliferation was measured as absorbance at […] of each well. Data from six individual experiments were evaluated independently with eight replicates expressed as the mean±SEM percent cell proliferation inhibition versus untreated control cells *P<0.05 and **P<0.01 vs. control.
Control wells were treated with vehicle solution. TT cell proliferation was measured as absorbance at […] of each well. Data from six individual experiments were evaluated independently with eight replicates expressed as the mean±SEM percent cell proliferation inhibition versus untreated control cells *P<0.05 and **P<0.01 vs. control.
Control wells were treated with vehicle solution and TT cell proliferation was measured as absorbance at […] of each well. Data from six individual experiments were evaluated independently with eight replicates expressed as the mean±SEM percent cell proliferation inhibition versus untreated control cells *P<0.05 and **P<0.01 vs. control.
The effects of SSTR selective agonists and antagonists on TT cell proliferation were assessed by the […] […] The absorbance at 490 nm was then recorded using an ELISA plate reader (EASIA Reader, Medgenix, Camarillo, Calif.). […]

CC(C)[C@@H]1NC(=O)[C@H](CCCCN)NC(=O)[C@@H](Cc2c[nH]c3ccccc23)NC(=O)[C@H](Cc2ccc(O)cc2)NC(=O)[C@@H](NC(=O)[C@H](N)Cc2ccc3ccccc3c2)CSSC[C@@H](C(=O)N[C@H](C(N)=O)[C@@H](C)O)NC1=O [Compound 1, D-Nal-cyclo[Cys-Tyr-D-Trp-Lys-Val-Cys]-Thr-NH2]
Cytotoxic action by Trypan Blue staining ([1]; 10^-7 M): not associated with any cytotoxic action

CC[C@@H]1NC(=O)[C@H](CCCCN)NC(=O)[C@@H](Cc2c[nH]c3ccccc23)NC(=O)[C@H](Cc2ccc(O)cc2)NC(=O)[C@@H]2Cc3ccccc3CN2C(=O)[C@H](Cc2ccccc2)NC1=O [Compound 2, cyclo[Tic-Tyr-D-Trp-Lys-Abu-Phe]] (cyclo([Tic]Y[dW]K[Abu]F))
Cytotoxic action by Trypan Blue staining [1]: not associated with any cytotoxic action | Intracellular Ca2+ mobilization (ratio stimulated/basal) in SSTR2 expressing cells [2]: stimulated significant intracellular Ca^2+ mobilization

CC[C@@H]1NC(=O)[C@H](CCCCN)NC(=O)[C@@H](Cc2c[nH]c3ccccc23)NC(=O)[C@H](Cc2ccc(O)cc2)NC(=O)[C@@H](NC(=O)[C@@H](Cc2ccccc2)NC(=O)CN2CCN(CCO)CC2)CSSC[C@@H](C(=O)N[C@H](C(N)=O)[C@@H](C)O)NC1=O [Compound 3, 4-(2-Hydroxyethyl)-1-piperazinylacetyl-D-Phe-cyclo(Cys-Tyr-D-Trp-Lys-Abu-Cys)-Thr-NH2]
Ki [3]: 5.21 µM | Significant reduction of [3H]thy incorporation ([4]; 10^-8 M and 10^-7 M): not | Significant reduction of [3H]thy incorporation ([4]; 10^-9 M): significantly (p<0.05) reduced | Change of [3H]thy incorporation ([4]; 10^-9 M, 48 h): −17%

CC[C@@H]1NC(=O)[C@H](CCCCN)NC(=O)[C@@H](Cc2c[nH]c3ccccc23)NC(=O)[C@H](Cc2ccc(O)cc2)NC(=O)[C@@H](NC(=O)[C@@H](Cc2ccccc2)NS(=O)(=O)CCN2CCN(CCO)CC2)CSSC[C@@H](C(=O)N[C@H](C(N)=O)[C@@H](C)O)NC1=O [Compound 4, 4-(2-Hydroxyethyl)-1-piperazine-2-ethanesulfonyl-D-Phe-cyclo(Cys-Tyr-D-Trp-Lys-Abu-Cys)-Thr-NH2]
Significant reduction of [3H]thy incorporation ([4]; 10^-8 M and 10^-7 M): not | Significant reduction of [3H]thy incorporation ([4]; 10^-9 M): significantly (p<0.05) reduced | Change of [3H]thy incorporation ([4]; 10^-9 M, 48 h): −13%

C[C@@H](O)[C@H](NC(=O)[C@H](Cc1ccccc1)NC(=O)[C@@H](NC(=O)[C@H](CCCCN)NC(=O)[C@@H](Cc1c[nH]c2ccccc12)NC(=O)[C@H](Cc1c[nH]c2ccccc12)NC(=O)[C@H](Cc1ccccc1)NC(=O)[C@H](N)Cc1ccccc1)[C@@H](C)O)C(N)=O [Compound 5, D-Phe-Phe-Trp-D-Trp-Lys-Thr-Phe-Thr-NH2]
Effect on suppression of TT cell [3H]thy incorporation produced by Compound 2 ([4]; 10^-9 M to 10^-6 M with Compound 2 10^-7 M, FIG. 8 upper panel): dose-dependently prevented | Increase of [3H]thy incorporation ([4]; 10^-9 to 10^-6 M, 48 h): 80-175% | Increase of TT cell proliferation ([5]; 10^-8 M, not statistically different from control): up to 11% | Effect on suppression of TT cell proliferation produced by Compound 2 ([5]; 10^-9 M to 10^-6 M with Compound 2 10^-7 M, FIG. 8 lower panel): dose-dependently prevented
